Source: publication PMC7035259, “T-13 and T-26, the novel taxanes with improved oral bioavailability in rats” (Scientific Reports, 2020)

What was measured:
[1] = Pharmacokinetics after intravenous and oral administration in rats (LC-MS/MS of plasma); format: in vivo, male Sprague-Dawley (S.D.) rats; conditions: oral 60 mg/kg vs intravenous 5 mg/kg, F = (AUCp.o × Dosei.v)/(AUCi.v × Dosep.o) × 100%; for bioavailability: male, Sprague-Dawley, rat, plasma, read-out: F (absolute oral bioavailability)
Experimental: For the pharmacokinetic study, male S.D. rats (average weight 300 g) were fasted overnight to prevent coprophagia but allowing free access to water. The rats were randomly divided into four groups (6 animals each). The dosages of taxanes used in the pharmacokinetic study were based on the previously published reports[15]–[17]. For solution, T-13 and T-26 were dissolved in a mixture of Tween 80 and ethanol (50:50, v/v) at 50 mg/mL for intravenous and oral administration, respectively. Group I received the T-13 stock solution diluted with normal saline solution up to 1 mL at a dose of 5 mg/kg for intravenous injection. Group II received T-13 at a dose of 60 mg/kg for oral administration. Group III received the compound T-26 stock solution diluted with normal saline solution up to 1 mL at a dose of 5 mg/kg for intravenous injection. Group IV received T-26 at a dose of 60 mg/kg for oral administration.
Blood samples (~0.20 mL) were collected into heparin coated tubes at 0, 5, 10, 20, 40 min, 1, 2, 4, 6, 8, 12 and 24 h after intravenous injection and 5, 15, 30, 45 min, 1, 2, 4, 6, 8, 12 and 24 h after oral administration. Blood samples were centrifuged at 12,000 rpm for 10 min. The supernatant fractions were transferred into labeled microcentrifuge tubes and stored at −40 °C until LC-MS/MS analysis.
The concentration of T-13 and T-26 were determined in plasma by LC/MS as described above. Calibration curves were used for the conversion of the T-13/Paclitaxel chromatographic area to the concentration. Calibrator and quality control samples were prepared by adding appropriate volumes of standard T-13 or T-26 acetonitrile solution to drug-free plasma. Calibration curves were designed over the range 5–10,000 ng/mL (γ^2 > 0.999). An aliquot (100 μL) of plasma sample was mixed with 100 μL of acetonitrile containing internal standard (PTX, 500 ng/mL), followed by vortex mixing. Then the mixture was added 3 mL of ethyl acetate, followed by vortex gentle agitation for 3 min. […] The supernatant fraction was transferred to auto-sampler vial, and analyzed by HPLC. […]
The pharmacokinetic analysis of concentration-time data obtained after the administration of the compounds T-13 and T-26 were analyzed by a noncompartmental model using Xcalibur® (version 1.3) Software (Thermo Finnigan). The following pharmacokinetic parameters were calculated from the plasma data of Group I and Group III using WinNonlin5.2. Software: total area under the plasma concentration versus time curve, determined by extrapolation from 0 to ∞ after intravenous administration (AUCiv), half-life of the terminal phase (t1/2) and the mean residence time (MRT). Other parameters such as maximum plasma concentration (Cmax) and the time to reach Cmax (Tmax) were also analyzed after oral administration in rats.

[2] = target: T1, P-glycoprotein (P-gp) (Homo sapiens, UniProt P08183); assay: Interaction with P-gp in MDCK-MDR1 and MDCK-WT cell permeability studies; format: in vitro ADME; conditions: MDCK-MDR1 and MDCK-WT cells; for P-gp substrate activity: with and without a P-gp inhibitor (such as verapamil); for P-gp inhibition: with and without a P-gp substrate (such as digoxin)
T1 construct: expressed in transfected cells; host or cells: MDCK-MDR1 (Madin-Darby canine kidney cells carrying MDR1); MDCK-WT as control
Description: In an attempt to increase the solubility of taxoids and develop more safe clinical formulations, we previously synthesized a series of novel taxol analogs by modifying the positions of C7, C10, C14 and C3′, which have improved water solubility and oral bioavailability. […] In order to further evaluate the substrate activity of novel taxol analogs with P-gp and whether they are P-gp inhibitors, T-13 and T-26 were selected based on structural characteristics (with or without 1, 14-carbonate moiety) and cytotoxicity in vitro for evaluation of the interaction with P-gp in Madin-Darby canine kidney (MDCK)-multidrug resistance-1 (MDR1) and MDCK-wild type (WT) cells (a more P-gp specific model)[13],[14] permeability studies, under two sets of conditions: one with and without a P-gp inhibitor (such as verapamil) to look at whether the test compounds were P-gp substrates or not, one with and without a P-gp substrate (such as digoxin) to look at whether the test compounds were P-gp inhibitors or not. […] Therefore, the permeability of the Caco-2 cells was enhanced in vitro.

[3] = system: Caco-2 monolayer cells; design: method as in PMID 24332858; conditions: cited from earlier work
[4] = design: method as in PMID 23811429; conditions: paclitaxel, rats; cited from earlier work

T1 sequence (P08183 whole entry): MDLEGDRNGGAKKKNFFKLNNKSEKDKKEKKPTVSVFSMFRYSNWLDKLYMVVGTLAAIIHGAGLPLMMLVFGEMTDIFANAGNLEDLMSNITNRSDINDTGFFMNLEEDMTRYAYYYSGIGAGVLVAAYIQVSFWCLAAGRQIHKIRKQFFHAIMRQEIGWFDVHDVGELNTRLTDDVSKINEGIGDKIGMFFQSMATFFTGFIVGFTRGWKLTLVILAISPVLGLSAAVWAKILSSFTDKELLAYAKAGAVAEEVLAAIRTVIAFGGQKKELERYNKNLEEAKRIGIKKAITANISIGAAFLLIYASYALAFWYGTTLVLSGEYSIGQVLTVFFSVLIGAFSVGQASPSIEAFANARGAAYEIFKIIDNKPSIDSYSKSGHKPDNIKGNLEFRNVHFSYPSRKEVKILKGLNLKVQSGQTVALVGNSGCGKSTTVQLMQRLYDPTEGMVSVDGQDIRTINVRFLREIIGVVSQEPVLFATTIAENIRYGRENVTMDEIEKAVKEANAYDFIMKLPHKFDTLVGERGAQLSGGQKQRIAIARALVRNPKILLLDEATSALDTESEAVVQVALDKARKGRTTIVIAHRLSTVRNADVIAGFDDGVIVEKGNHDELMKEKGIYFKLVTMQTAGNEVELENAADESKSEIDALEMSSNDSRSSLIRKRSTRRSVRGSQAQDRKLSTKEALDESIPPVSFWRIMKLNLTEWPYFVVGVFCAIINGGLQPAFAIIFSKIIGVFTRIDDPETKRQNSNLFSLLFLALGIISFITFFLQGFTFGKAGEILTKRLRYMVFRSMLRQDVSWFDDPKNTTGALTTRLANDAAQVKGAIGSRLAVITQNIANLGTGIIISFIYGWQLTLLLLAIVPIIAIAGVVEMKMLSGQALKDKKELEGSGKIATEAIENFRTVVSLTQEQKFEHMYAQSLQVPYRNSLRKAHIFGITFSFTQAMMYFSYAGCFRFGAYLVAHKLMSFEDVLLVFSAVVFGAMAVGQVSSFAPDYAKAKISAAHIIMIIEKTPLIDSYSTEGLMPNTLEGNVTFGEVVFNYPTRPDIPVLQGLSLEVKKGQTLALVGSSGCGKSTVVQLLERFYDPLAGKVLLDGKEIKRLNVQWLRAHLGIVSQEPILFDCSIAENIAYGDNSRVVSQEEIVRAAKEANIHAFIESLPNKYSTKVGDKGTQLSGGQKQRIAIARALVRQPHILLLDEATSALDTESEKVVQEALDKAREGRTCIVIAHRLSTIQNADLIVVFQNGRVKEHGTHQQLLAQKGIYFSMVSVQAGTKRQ

SMILES	bioavailability [1] [%]	F (absolute oral bioavailability) [1] [%]	P-gp substrate activity [2]	P-gp inhibition [2]	efflux ratio [3]	permeability [3]	oral bioavailability [4] [%]
CO[C@H]1C(=O)[C@]2(C)[C@@H](OC(=O)N(C)C)C[C@H]3OC[C@@]3(OC(C)=O)[C@H]2[C@H](OC(=O)c2ccccc2)[C@]2(O)C[C@H](OC(=O)[C@H](O)[C@@H](NC(=O)OC(C)(C)C)c3ccccc3)C(C)=C1C2(C)C [Compound T-13]	~11	10.71	poor substrates of P-gp	possessed inhibiting effects of P-gp mediated efflux	less than 2.0	highest permeability	–
CO[C@H]1C(=O)[C@]2(C)[C@@H](OC(=O)N(C)C)C[C@H]3OC[C@@]3(OC(C)=O)[C@H]2[C@H](OC(=O)c2ccccc2)[C@]2(O)C[C@H](OC(=O)[C@H](O)[C@H](CC(C)C)NC(=O)OC(C)(C)C)C(C)=C1C2(C)C [Compound T-15]	–	–	–	–	less than 2.0	highest permeability	–
CO[C@H]1C[C@H]2OC[C@@]2(OC(C)=O)[C@H]2[C@H](OC(=O)c3ccccc3)[C@]34OC(=O)O[C@H]3[C@H](OC(=O)[C@H](O)[C@@H](NC(=O)OC(C)(C)C)c3ccccc3)C(C)=C([C@@H](OC(=O)N(C)C)C(=O)[C@]12C)C4(C)C [Compound T-26]	~66	65.79	poor substrates of P-gp	possessed inhibiting effects of P-gp mediated efflux	less than 2.0	highest permeability	–
CC(=O)O[C@H]1C(=O)[C@@]2(C)[C@H]([C@H](OC(=O)c3ccccc3)[C@]3(O)C[C@H](OC(=O)[C@H](O)[C@@H](NC(=O)c4ccccc4)c4ccccc4)C(C)=C1C3(C)C)[C@]1(OC(C)=O)CO[C@@H]1C[C@@H]2O [paclitaxel, Paclitaxel]	–	–	–	–	–	–	5
